GI50 and TGI data for nine compounds are collected here from PubChem BioAssay (NCI).

Among the test systems are A549 NSCLC; UACC-257 melanoma; U251 CNS; SN12C renal; COLO 205 colon; SW-620 colon; ACHN renal; NCI-H23 lung; MOLT-4 leukemia; M14 melanoma.
Holding throughout (assay): NCI-60 cell line screen, 48 h

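Method: 48-hour compound exposure of cells in 96-well plates, five concentrations, linear interpolation of endpoints. GI50: concentration for 50% inhibition of growth. TGI marks complete inhibition of growth.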

On to `O=C1CCCN1c1ccccc1I(=O)=O`, for which the GI50 in the assay on A549 NSCLC, with UACC-257 melanoma, in the assay with U251 CNS, in the assay on SN12C renal, with COLO 205 colon and in the assay with SW-620 colon was over 100 µM in each case. Moreover, the GI50 in the assay with ACHN renal, in the assay with NCI-H23 lung and in the assay with MOLT-4 leukemia was over 100 µM in each case. For the same compound, the TGI with A549 NSCLC, in the assay on UACC-257 melanoma, with U251 CNS, with SN12C renal, with COLO 205 colon and in the assay with SW-620 colon was over 100 µM throughout. For the same compound, the TGI in the assay with ACHN renal, in the assay on NCI-H23 lung and in the assay with MOLT-4 leukemia was over 100 µM each time.
As for `CC(=O)N1CCN(c2ccc(OCC3COC(Cn4ccnc4)(c4ccc(Cl)cc4Cl)O3)cc2)CC1` (stereo not given), the TGI in the assay with A549 NSCLC was over 100 µM; in the assay on UACC-257 melanoma it was 51.1 µM; in the assay with SN12C renal, over 100 µM; with COLO 205 colon it was 40.8 µM; with SW-620 colon, over 100 µM; in the assay with M14 melanoma, 52.1 µM. The TGI with ACHN renal and with MOLT-4 leukemia was over 100 µM in each case.
For the compound `CC1=C(C#N)C(=O)CC(c2ccc(Cl)cc2)N(C)N1` (stereo not given), the TGI in the assay on A549 NSCLC, in the assay with UACC-257 melanoma, with U251 CNS, with SN12C renal, with SW-620 colon and in the assay with M14 melanoma was over 100 µM throughout. Further, the TGI in the assay on ACHN renal, in the assay on NCI-H23 lung and in the assay on MOLT-4 leukemia was over 100 µM in each case.
Consider `Cc1ccc(OCCOCCOCCOCCOc2ccc(C)n(O)c2=S)c(=S)n1O`, for which the GI50 with A549 NSCLC is 0.0449 µM; in the assay with UACC-257 melanoma, 0.0192 µM; in the assay on U251 CNS it was 0.0632 µM; in the assay with SN12C renal it was 0.0266 µM; in the assay on COLO 205 colon, 0.0484 µM; in the assay with SW-620 colon it was under 0.0127 µM. For the same compound, the values for the GI50 in the assay with ACHN renal, in the assay with NCI-H23 lung and with MOLT-4 leukemia were under 0.0147 µM, 0.0166 µM and under 0.01 µM, respectively. For the same compound, the TGI in the assay with A549 NSCLC was over 100 µM; with UACC-257 melanoma, over 29.5 µM; in the assay on U251 CNS, over 100 µM; in the assay with SN12C renal it was over 100 µM; in the assay with COLO 205 colon, over 100 µM; in the assay on SW-620 colon it was over 100 µM. Moreover, the TGI in the assay on ACHN renal, with NCI-H23 lung and in the assay on MOLT-4 leukemia was over 100 µM throughout.
`COc1cc(/C=C\c2cc(OC)c(OC)c(OC)c2)cc(N/C=C\C(=O)c2c[nH]c3ccccc23)c1OC`: the GI50 in the assay on A549 NSCLC is 14.5 µM; with UACC-257 melanoma, 3.17 µM; with U251 CNS it was 3.84 µM; with SN12C renal, 2.44 µM; in the assay on COLO 205 colon, 1.51 µM; with SW-620 colon, 1.63 µM. Besides, the GI50 in the assay with M14 melanoma was 2.87 µM; in the assay with ACHN renal, 1.75 µM; in the assay with NCI-H23 lung, 3.75 µM. Also, the TGI in the assay with A549 NSCLC is 34.8 µM; in the assay on UACC-257 melanoma, 10.8 µM; with U251 CNS, 15.7 µM; in the assay on SN12C renal it was 7.13 µM; in the assay on COLO 205 colon, 3.2 µM; in the assay on SW-620 colon it was 3.31 µM. Further, the TGI came out at 12.6 µM in the assay on M14 melanoma, 3.39 µM in the assay on ACHN renal and 16.2 µM in the assay with NCI-H23 lung.
In the case of `CCc1ccc2c(c1)C(=O)c1c-2n(CCCN=[N+]=[N-])c(=O)c2cc([N+](=O)[O-])ccc12`, the GI50 in the assay on A549 NSCLC, with UACC-257 melanoma, with U251 CNS, in the assay on SN12C renal, with COLO 205 colon and in the assay on SW-620 colon was over 50 µM in each case. Moreover, the GI50 in the assay on M14 melanoma, with ACHN renal and in the assay on NCI-H23 lung was over 50 µM throughout. Besides, the TGI in the assay on A549 NSCLC, with UACC-257 melanoma, in the assay on U251 CNS, in the assay with SN12C renal, in the assay with COLO 205 colon and with SW-620 colon was over 50 µM throughout. The TGI in the assay on M14 melanoma, in the assay on ACHN renal and in the assay on NCI-H23 lung was over 50 µM each time.
With `CCCc1cc(=O)n2c(C(=O)Nc3ccc(Cl)cc3C)c(C(=O)Nc3ccc(F)cc3)sc2n1`, the GI50 with A549 NSCLC is 2.63 µM; with UACC-257 melanoma, 7.56 µM; in the assay on U251 CNS, 1.51 µM; in the assay with COLO 205 colon it was 16.9 µM; in the assay on SW-620 colon, 6.45 µM; in the assay with M14 melanoma, 4.67 µM. The GI50 in the assay on ACHN renal was 3.8 µM; with NCI-H23 lung it was 26.4 µM; with MOLT-4 leukemia, 3.99 µM. For the same compound, the TGI was 5.95 µM in the assay on A549 NSCLC; 42.4 µM in the assay with UACC-257 melanoma; 4.37 µM in the assay on U251 CNS; over 150 µM in the assay on COLO 205 colon; 61.4 µM in the assay on SW-620 colon; 23.7 µM in the assay with M14 melanoma. For the same compound, the TGI in the assay with ACHN renal was 13.4 µM; with NCI-H23 lung, over 150 µM; in the assay on MOLT-4 leukemia, 22.2 µM.
`Nc1cc2c(cc1Br)[nH]c(=O)c1ccccc12`: the GI50 with A549 NSCLC was 2.91 µM; in the assay with UACC-257 melanoma, 4.13 µM; with SN12C renal, 2.68 µM; with COLO 205 colon, 3.34 µM; with SW-620 colon, 7.73 µM; with M14 melanoma, 2.92 µM. For the same compound, the results for the GI50 with ACHN renal, in the assay on NCI-H23 lung and in the assay on MOLT-4 leukemia were 3.09 µM, 1.8 µM and 4.03 µM, respectively. Further, the TGI amounted to 11.4 µM with A549 NSCLC; 17.1 µM with UACC-257 melanoma; 13.8 µM in the assay on SN12C renal; 29 µM in the assay with SW-620 colon; 10 µM in the assay with M14 melanoma; 20.1 µM in the assay with ACHN renal. In addition, the TGI with NCI-H23 lung was 5.29 µM; with MOLT-4 leukemia it was 43 µM.
With `O=C(/C(=C\c1c(-c2ccccc2)[nH]c2ccccc12)S(=O)(=O)c1ccccc1)c1ccccc1`, the GI50 was 35 µM with A549 NSCLC; over 100 µM in the assay on UACC-257 melanoma; 8.64 µM in the assay with U251 CNS; over 100 µM with SN12C renal; 7.8 µM with COLO 205 colon; 15.6 µM in the assay with M14 melanoma. Further, the results for the GI50 with ACHN renal and in the assay with NCI-H23 lung were 6.67 µM and 9.57 µM, respectively. Moreover, the TGI with A549 NSCLC, in the assay with UACC-257 melanoma, in the assay on U251 CNS, in the assay with SN12C renal, in the assay on COLO 205 colon and with M14 melanoma was over 100 µM throughout. In addition, the TGI in the assay on ACHN renal and in the assay on NCI-H23 lung was over 100 µM in each case.
